In BindingDB's records for patent US11547697 (Millennium Pharmaceuticals, 2023) one finds IC50 data, which are given here for 41 molecules.

Assay [1] concerns the target Phosphatidylinositol 4,5-bisphosphate 3-kinase catalytic subunit beta isoform (Homo sapiens, UniProt P42338). The assay is described as follows: Inhibition Assay of PI3K.
Description: (§1) An exemplary system is PI 3-Kinase (human) HTRF Assay from Upstate. […] Briefly, the assay is a time resolved FRET assay that indirectly measures PIP3 product formed by the activity of a PI3-K. The kinase reaction is performed in a microtitre plate (e.g., a 384 well microtitre plate). The total reaction volume is approximately 20 ul per well. In the first step, each well receives 2 ul of test compound in 20% dimethylsulphoxide resulting in a 2% DMSO final concentration. Next, approximately 14.5 ul of a kinase/PIP2 mixture (diluted in 1× reaction buffer) is added per well for a final concentration of 0.25-0.3 ug/ml kinase and 10 μM PIP2. The plate is sealed and incubated for 15 minutes at room temperature. To start the reaction, 3.5 ul of ATP (diluted in 1× reaction buffer) is added per well for a final concentration of 10 μM ATP. The plate is sealed and incubated for 1 hour at room temperature. The reaction is stopped by adding 5 ul of Stop Solution per well and then 5 ul of Detection Mix is added per well. The plate is sealed, incubated for 1 hour at room temperature, and then read on an appropriate plate reader.
In assay [2] the target is T1, Phosphatidylinositol 4,5-bisphosphate 3-kinase catalytic subunit delta isoform (Homo sapiens, UniProt O00329).
T1 sequence (O00329 whole entry): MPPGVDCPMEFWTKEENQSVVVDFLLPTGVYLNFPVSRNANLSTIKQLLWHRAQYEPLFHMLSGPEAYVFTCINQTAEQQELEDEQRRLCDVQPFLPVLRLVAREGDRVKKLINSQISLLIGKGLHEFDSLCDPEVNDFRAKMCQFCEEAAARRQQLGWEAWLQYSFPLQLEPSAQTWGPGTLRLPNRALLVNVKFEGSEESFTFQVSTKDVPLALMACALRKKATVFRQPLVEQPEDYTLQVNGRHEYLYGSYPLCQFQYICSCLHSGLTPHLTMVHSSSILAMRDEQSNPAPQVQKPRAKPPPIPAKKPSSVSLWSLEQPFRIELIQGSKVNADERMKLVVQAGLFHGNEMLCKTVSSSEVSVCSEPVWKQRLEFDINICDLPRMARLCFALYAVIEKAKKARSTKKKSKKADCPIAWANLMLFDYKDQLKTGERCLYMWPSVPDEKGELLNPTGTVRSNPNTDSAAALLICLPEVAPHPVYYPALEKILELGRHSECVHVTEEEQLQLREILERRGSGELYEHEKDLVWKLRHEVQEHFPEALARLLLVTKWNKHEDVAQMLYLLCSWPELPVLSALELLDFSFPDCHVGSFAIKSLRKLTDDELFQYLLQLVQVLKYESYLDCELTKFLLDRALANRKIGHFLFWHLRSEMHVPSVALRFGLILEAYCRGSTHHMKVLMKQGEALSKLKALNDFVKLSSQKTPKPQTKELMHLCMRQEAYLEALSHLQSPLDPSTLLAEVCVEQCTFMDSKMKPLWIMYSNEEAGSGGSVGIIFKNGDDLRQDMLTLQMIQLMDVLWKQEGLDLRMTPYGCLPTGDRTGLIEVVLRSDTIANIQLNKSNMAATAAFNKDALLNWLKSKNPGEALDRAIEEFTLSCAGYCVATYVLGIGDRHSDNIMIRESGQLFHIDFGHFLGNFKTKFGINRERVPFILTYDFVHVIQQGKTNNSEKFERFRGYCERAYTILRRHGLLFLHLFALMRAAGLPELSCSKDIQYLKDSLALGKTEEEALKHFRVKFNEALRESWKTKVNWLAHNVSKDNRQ
Description: Inhibition Assay of PI3K.
Description: as §1

SMILES strings stand for the structures. Bounds are passed on as bounds.

Chain of Phosphatidylinositol 4,5-bisphosphate 3-kinase catalytic subunit beta isoform (P42338 whole entry, canonical isoform): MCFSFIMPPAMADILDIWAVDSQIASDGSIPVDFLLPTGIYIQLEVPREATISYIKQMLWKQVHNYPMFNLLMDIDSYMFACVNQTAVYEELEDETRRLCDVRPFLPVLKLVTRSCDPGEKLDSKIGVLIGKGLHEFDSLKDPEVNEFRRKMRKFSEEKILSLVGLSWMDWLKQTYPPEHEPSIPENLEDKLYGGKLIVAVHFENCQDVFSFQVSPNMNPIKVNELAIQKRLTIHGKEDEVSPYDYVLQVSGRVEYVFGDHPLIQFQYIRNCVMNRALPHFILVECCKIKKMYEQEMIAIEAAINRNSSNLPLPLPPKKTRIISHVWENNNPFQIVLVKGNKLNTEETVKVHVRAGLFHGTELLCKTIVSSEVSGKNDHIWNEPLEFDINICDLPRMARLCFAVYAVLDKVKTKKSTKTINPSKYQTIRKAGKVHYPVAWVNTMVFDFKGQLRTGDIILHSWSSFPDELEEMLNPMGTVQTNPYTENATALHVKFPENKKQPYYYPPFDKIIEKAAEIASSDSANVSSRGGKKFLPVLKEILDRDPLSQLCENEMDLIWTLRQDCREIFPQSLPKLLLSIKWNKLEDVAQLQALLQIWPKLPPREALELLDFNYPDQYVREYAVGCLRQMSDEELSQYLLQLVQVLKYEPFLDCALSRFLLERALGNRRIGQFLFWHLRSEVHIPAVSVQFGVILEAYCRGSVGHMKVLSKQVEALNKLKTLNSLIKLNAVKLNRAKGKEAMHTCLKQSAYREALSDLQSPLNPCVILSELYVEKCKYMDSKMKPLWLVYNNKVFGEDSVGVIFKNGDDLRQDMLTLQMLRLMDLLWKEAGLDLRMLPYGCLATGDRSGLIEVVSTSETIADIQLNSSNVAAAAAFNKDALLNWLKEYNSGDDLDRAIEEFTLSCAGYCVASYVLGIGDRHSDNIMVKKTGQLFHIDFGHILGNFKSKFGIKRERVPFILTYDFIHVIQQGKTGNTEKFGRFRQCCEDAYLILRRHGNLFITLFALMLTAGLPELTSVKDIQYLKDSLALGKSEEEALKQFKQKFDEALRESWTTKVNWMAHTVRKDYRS

On to `Nc1nc2cc(-c3ccc4ncc(C(=O)N5CCN(CCO)CC5)n4c3)ccc2o1` [US11547697, Compound 148], for which the IC50 in assay [1] and in assay [2] was above 10 µM each time.

As for `Nc1nc2cc(-c3ccc4ncc(C(=O)N5CC[C@H](F)C5)n4c3)ccc2o1` [US11547697, Compound 476], the IC50 in assay [1] and in assay [2] was above 10 µM throughout.

In the case of `Cc1ccn(C2CCN(C(=O)c3cnc4ccc(-c5ccc6oc(N)nc6c5)cn34)CC2)n1` [US11547697, Compound 297], the IC50 in assay [1] and in assay [2] was above 10 µM each time.

In the case of `Cc1ccn(C2CCN(c3cnc4ccc(-c5ccc6oc(N)nc6c5)cc4n3)CC2)n1` [US11547697, Compound 223], the IC50 in assay [1] and in assay [2] was above 10 µM throughout.

Take `Nc1nc2ccc(-c3ccc4ncc(N5CCOCC5)nc4c3)cc2s1` [US11547697, Compound 114]: the IC50 in assay [1] and in assay [2] was above 10 µM in each case.

With `Nc1nc2cc(-c3ccc4ncc(C(=O)N5CCS(=O)(=O)CC5)n4c3)ccc2o1` [US11547697, Compound 107], the IC50 in assay [1] and in assay [2] was above 10 µM each time.

As to `CC1(C)CN(C(=O)c2cnc3ccc(-c4ccc5oc(N)nc5c4)cn23)CCO1` [US11547697, Compound 513], the IC50 in assay [1] and in assay [2] was above 10 µM each time.

For `Nc1noc2ccc(-c3ccc4nccc(-c5ccncc5)c4c3)cc12` [US11547697, Compound 18], the IC50 in assay [1] and in assay [2] was above 10 µM each time.

For `N#Cc1cnc2ccc(-c3ccc4oc(N)nc4c3)cc2c1` [US11547697, Compound 93], the IC50 in assay [1] and in assay [2] was above 10 µM each time.

`CC(=O)N1CCN(C(=O)c2cnc3ccc(-c4ccc5oc(N)nc5c4)cn23)CC1` [US11547697, Compound 113]: the IC50 in assay [1] and in assay [2] was above 10 µM throughout.

Consider `O=C(c1cnc2ccc(-c3cccc(NS(=O)(=O)c4ccccc4)c3)cn12)N1CCOCC1` [US11547697, Compound 453], for which the IC50 in assay [1] and in assay [2] was above 10 µM throughout.

Take `C[C@@H]1CN(c2cnc3ccc(-c4ccc5oc(N)nc5c4)cc3n2)C[C@H](C)O1` [US11547697, Compound 132]: the IC50 in assay [1] and in assay [2] was above 10 µM each time.

Regarding `COc1ncc(-c2ccc3ncc(C(=O)N4CCOCC4)n3c2)cc1NS(=O)(=O)c1ccccc1` [US11547697, Compound 420], the IC50 (usually the midpoint of a concentration-inhibition curve) in assay [1] was above 10 µM.

For `Nc1nc2cc(-c3ccc4ncc(C(=O)N5CC(F)(F)C5)n4c3)ccc2o1` [US11547697, Compound 473], the IC50 in assay [1] and in assay [2] was above 10 µM throughout.

Regarding `NC(=O)[C@H]1CCCN1C(=O)c1cnc2ccc(-c3ccc4oc(N)nc4c3)cn12` [US11547697, Compound 260], the IC50 in assay [1] and in assay [2] was above 10 µM each time.

Turning to `Nc1nc2cc(-c3ccc4ncc(N5CCCCC5)nc4c3)ccc2o1` [US11547697, Compound 175], the IC50 in assay [1] and in assay [2] was above 10 µM throughout.

As for `COc1ccc(-c2ccc3ncc(C(=O)N4CCOCC4)n3c2)cc1NS(=O)(=O)c1ccccc1` [US11547697, Compound 455], the IC50 in assay [1] and in assay [2] was above 10 µM throughout.

For `O=C(c1cnc2ccc(-c3ccc(Cl)c(NS(=O)(=O)c4ccccc4)c3)cn12)N1CCOCC1` [US11547697, Compound 459], the IC50 in assay [1] and in assay [2] was above 10 µM in each case.

Consider `Nc1nc2cc(-c3ccc4ncc(C(=O)N5CCC(F)(F)C5)n4c3)ccc2o1` [US11547697, Compound 471], for which the IC50 in assay [1] and in assay [2] was above 10 µM throughout.

On to `Nc1nc2cc(-c3ccc4ncc(N5CC(N6CCOCC6)C5)nc4c3)ccc2o1` [US11547697, Compound 273], for which the IC50 in assay [1] and in assay [2] was above 10 µM in each case.

On to `Nc1nc2cc(-c3ccc4ncc(C(=O)N5CCC6(C5)OCCO6)n4c3)ccc2o1` [US11547697, Compound 499], for which the IC50 in assay [1] and in assay [2] was above 10 µM throughout.

In turn, `Nc1nc2cc(-c3ccc4ncc(N5CCN(C(=O)C6(N)CC6)CC5)nc4c3)ccc2o1` [US11547697, Compound 226] came in with an IC50 in assay [1] above 10 µM.

On to `Cc1cc(-c2ccc3oc(N)nc3c2)cn2c(C(=O)N3CCOCC3)cnc12` [US11547697, Compound 448], for which the concentration for half-maximal inhibition (IC50) in assay [1] and in assay [2] was above 10 µM in each case.

As to `Nc1nc2cc(-c3ccc4ncc(N5CCNCC5=O)nc4c3)ccc2o1` [US11547697, Compound 389], the IC50 in assay [1] and in assay [2] was above 10 µM in each case.

Consider `Nc1nc2cc(-c3ccc4ncc(C(=O)N5CC[C@H](N6CCOCC6)C5)n4c3)ccc2o1` [US11547697, Compound 465], for which the IC50 in assay [1] and in assay [2] was above 10 µM throughout.

With `NC(=O)[C@@H]1CCCN1C(=O)c1cnc2ccc(-c3ccc4oc(N)nc4c3)cn12` [US11547697, Compound 259], the IC50 in assay [1] and in assay [2] was above 10 µM throughout.

For the molecule `CC(C)n1cnc2ccc(-c3ccc4oc(N)nc4c3)cc2c1=O` [US11547697, Compound 206], the IC50 in assay [1] and in assay [2] was above 10 µM throughout.

Regarding `Nc1nc2cc(-c3ccc4ncc(C(=O)N5CC(n6cccn6)C5)n4c3)ccc2o1` [US11547697, Compound 479], the IC50 in assay [1] is above 10 µM.

Regarding `COc1ncc(-c2ccc3ncc(C(=O)N4CCOCC4)n3c2)c2cn[nH]c12` [US11547697, Compound 517], in assay [1], the IC50 was above 10 µM.

Take `O=C(c1cnc2ccc(-c3cccc(NS(=O)(=O)c4ccc(F)cc4F)c3)cn12)N1CCOCC1` [US11547697, Compound 454]: the IC50 in assay [1] was above 10 µM.

For the molecule `CS(=O)(=O)N1CCN(C(=O)c2cnc3ccc(-c4ccc5oc(N)nc5c4)cn23)CC1` [US11547697, Compound 112], the IC50 in assay [1] was above 10 µM.

For `Cc1ccc(NC(=O)c2cnc3ccc(-c4ccc5oc(N)nc5c4)cn23)cn1` [US11547697, Compound 294], the IC50 in assay [1] is above 10 µM.

In turn, `Nc1nc2cc(-c3ccc4ncc(C(=O)Nc5cccnc5)n4c3)ccc2o1` [US11547697, Compound 190] returned an IC50 in assay [1] above 10 µM.

For the molecule `Nc1nc2cc(-c3ccc4ncc(C(=O)N5CC[C@@H](n6cccn6)C5)n4c3)ccc2o1` [US11547697, Compound 477], the IC50 in assay [1] is above 10 µM.

For `O=C(c1cnc2ccc(-c3cncc(NS(=O)(=O)c4ccccc4)c3)cn12)N1CCOCC1` [US11547697, Compound 424], the IC50 in assay [1] was above 10 µM.

For `O=C(c1cnc2ccc(-c3cncc(NS(=O)(=O)c4ccc(F)cc4F)c3)cn12)N1CCOCC1` [US11547697, Compound 425], the IC50 in assay [1] is above 10 µM.

`Nc1nc2cc(-c3ccc4ncc(C(=O)N5C6CCC5COC6)n4c3)ccc2o1` [US11547697, Compound 480] displayed an IC50 in assay [1] above 10 µM.

In turn, `CC(=O)Nc1ncc(-c2ccc3oc(N)nc3c2)s1` [US11547697, Compound 235] yielded an IC50 in assay [1] above 10 µM.

`Nc1nc2cc(-c3ccc4ncc(C(=O)N5CC(N6CCC(F)(F)C6)C5)n4c3)ccc2o1` [US11547697, Compound 502] showed an IC50 in assay [1] above 10 µM.

Turning to `Nc1nc2cc(-c3ccc4ncc(C(=O)N5CC[C@@H](F)C5)n4c3)ccc2o1` [US11547697, Compound 475], the IC50 in assay [1] is above 10 µM.

On to `C[C@H]1CCCN1C(=O)c1cnc2ccc(-c3ccc4oc(N)nc4c3)cn12` [US11547697, Compound 482], for which, in assay [1], the IC50 was above 10 µM.
